Measurements as given in patent US20250353891A1 (MEDIMMUNE LIMITED, priority 2022, published 2025).
Starred links: 1 amine or outer side, 2 acyl side, 3 side chain; linkers in the order of their positions; H or OH if unused. Non-standard residues stand in square brackets, D forms with d. Residues, ends and D or L forms follow the SMILES beside them. Groups on a side chain read outwards from the residue. *: point of attachment. C20 diacid = O=C(O)CCCCCCCCCCCCCCCCCCC(=O)*; C18 diacid = O=C(O)CCCCCCCCCCCCCCCCC(=O)*; γGlu = O=C(O)[C@H](CCC(=O)[*:2])N[*:1]; αMeF = C[C@](N)(Cc1ccccc1)C(=O)O; AEEA = NCCOCCOCC(=O)O; Aib = CC(C)(N)C(=O)O

What was measured:
[1] = molecular target: human glucagon receptor (hGCGR) (Homo sapiens, UniProt P47871); assay: cAMP production (HTRF) in CHO cells expressing hGCGR; type: cell-based; set-up: expressed in transfected cells; conditions: Table 7, peptides modified at position 20; cAMP in CHO hGCGR cells; geometric mean; read-out: hGluc-R EC50
Summary of the method: (§1)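 Potency values represent EC50 from 4-parameter logistic curves of HTRF % Delta F signal. Receptor-expressing CHO cells (hGCGR 2×10^5 cells/mL, hGLP-1R 1×10^5 cells/mL) were exposed for 30 min at room temperature before two-step cAMP detection.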

[2] = molecular target: human GLP-1 receptor (hGLP-1R) (Homo sapiens, UniProt P43220); assay: cAMP production (HTRF) in CHO cells expressing hGLP-1R; type: cell-based; set-up: expressed in transfected cells; conditions: for EC50: Table 7, peptides modified at position 20, cAMP in CHO hGLP-1R cells, geometric mean, read-out: hGLP-1R EC50; for % Relative Potency Ratio: Table 7, % GLP-1R activity relative to GLP-1 / % GlucR activity relative to glucagon
Summary of the method: as §1

Sequence of human glucagon receptor (hGCGR) (P47871 26-477): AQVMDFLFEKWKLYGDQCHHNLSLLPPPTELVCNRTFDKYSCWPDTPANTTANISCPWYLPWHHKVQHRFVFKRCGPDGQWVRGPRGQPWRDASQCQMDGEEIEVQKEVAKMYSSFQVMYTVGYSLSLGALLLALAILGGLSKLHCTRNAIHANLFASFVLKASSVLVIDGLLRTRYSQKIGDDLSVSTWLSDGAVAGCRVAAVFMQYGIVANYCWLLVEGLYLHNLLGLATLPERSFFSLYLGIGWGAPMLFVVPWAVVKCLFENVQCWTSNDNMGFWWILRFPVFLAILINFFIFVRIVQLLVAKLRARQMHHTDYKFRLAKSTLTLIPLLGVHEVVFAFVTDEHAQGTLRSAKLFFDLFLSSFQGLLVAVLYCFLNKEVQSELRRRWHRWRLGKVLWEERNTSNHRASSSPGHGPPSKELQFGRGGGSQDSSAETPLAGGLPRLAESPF
Sequence of human GLP-1 receptor (hGLP-1R) (P43220 24-463): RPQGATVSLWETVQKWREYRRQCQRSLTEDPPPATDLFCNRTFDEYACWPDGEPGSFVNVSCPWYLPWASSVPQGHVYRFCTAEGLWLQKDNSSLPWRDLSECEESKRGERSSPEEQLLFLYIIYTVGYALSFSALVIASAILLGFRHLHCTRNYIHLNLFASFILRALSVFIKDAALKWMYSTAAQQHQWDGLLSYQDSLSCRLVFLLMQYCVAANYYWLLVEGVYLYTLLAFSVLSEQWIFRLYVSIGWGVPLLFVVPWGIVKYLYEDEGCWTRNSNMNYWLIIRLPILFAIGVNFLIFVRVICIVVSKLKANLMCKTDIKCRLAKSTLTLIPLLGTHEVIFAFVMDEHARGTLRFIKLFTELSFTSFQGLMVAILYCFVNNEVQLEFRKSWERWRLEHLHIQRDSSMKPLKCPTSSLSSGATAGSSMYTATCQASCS

Row | SMILES | EC50 [1] | EC50 [2] | % Relative Potency Ratio [2]
1 | CC[C@H](C)[C@H](NC(=O)[C@H](Cc1c[nH]c2ccccc12)NC(=O)[C@H](CCC(N)=O)NC(=O)[C@@H](NC(=O)[C@](C)(Cc1ccccc1)NC(=O)[C@H](CC(=O)O)NC(=O)[C@H](CCCCNC(=O)COCCOCCNC(=O)COCCOCCNC(=O)CC[C@H](NC(=O)CC[C@H](NC(=O)CCCCCCCCCCCCCCCCCCC(=O)O)C(=O)O)C(=O)O)NC(=O)[C@H](C)NC(=O)[C@H](C)NC(=O)[C@H](CCCNC(=N)N)NC(=O)[C@H](CO)NC(=O)[C@H](CC(=O)O)NC(=O)[C@H](CC(C)C)NC(=O)[C@H](Cc1ccc(O)cc1)NC(=O)[C@H](CCCCN)NC(=O)[C@H](CO)NC(=O)[C@@H](NC(=O)[C@H](CC(=O)O)NC(=O)[C@H](CO)NC(=O)[C@@H](NC(=O)[C@H](Cc1ccccc1)NC(=O)[C@H](CO)NC(=O)CNC(=O)[C@H](Cc1c[nH]cn1)NC(=O)C(C)(C)NC(=O)[C@@H](N)Cc1c[nH]cn1)[C@@H](C)O)C(C)C)C(C)C)C(=O)N[C@@H](C)C(=O)N[C@@H](CC(N)=O)C(=O)N[C@H](C(N)=O)[C@@H](C)O [Peptide 291] (H-H[Aib]HGSFTSDVSKYLDSRAAK([AEEA-AEEA-γGlu-γGlu-C20 diacid])D[αMeF]VQWIANT-NH2) | 0.847 nM | 1.51 nM | 1.1
2 | CC[C@H](C)[C@H](NC(=O)[C@H](Cc1c[nH]c2ccccc12)NC(=O)[C@H](CCC(N)=O)NC(=O)[C@@H](NC(=O)[C@H](Cc1ccccc1)NC(=O)[C@H](CC(=O)O)NC(=O)[C@H](CCCCNC(=O)COCCOCCNC(=O)COCCOCCNC(=O)CC[C@H](NC(=O)CCCCCCCCCCCCCCCCC(=O)O)C(=O)O)NC(=O)[C@H](C)NC(=O)[C@H](C)NC(=O)[C@H](CCCNC(=N)N)NC(=O)[C@H](CO)NC(=O)[C@H](CC(=O)O)NC(=O)[C@H](CC(C)C)NC(=O)[C@H](Cc1ccc(O)cc1)NC(=O)[C@H](CCCCN)NC(=O)[C@H](CO)NC(=O)[C@@H](NC(=O)[C@H](CC(=O)O)NC(=O)[C@H](CO)NC(=O)[C@@H](NC(=O)[C@](C)(Cc1ccccc1)NC(=O)[C@H](CO)NC(=O)CNC(=O)[C@H](Cc1c[nH]cn1)NC(=O)C(C)(C)NC(=O)[C@@H](N)Cc1c[nH]cn1)[C@@H](C)O)C(C)C)C(C)C)C(=O)N[C@@H](C)C(=O)N[C@@H](CC(N)=O)C(=O)N[C@H](C(N)=O)[C@@H](C)O [Peptide 292] (H-H[Aib]HGS[αMeF]TSDVSKYLDSRAAK([AEEA-AEEA-γGlu-C18 diacid])DFVQWIANT-NH2) | 0.0204 nM | 0.0287 nM | 1.4
3 | CC[C@H](C)[C@H](NC(=O)[C@H](Cc1c[nH]c2ccccc12)NC(=O)[C@H](CCC(N)=O)NC(=O)[C@@H](NC(=O)[C@H](Cc1ccccc1)NC(=O)[C@H](CC(=O)O)NC(=O)[C@H](CCCCNC(=O)COCCOCCNC(=O)COCCOCCNC(=O)CC[C@H](NC(=O)CCCCCCCCCCCCCCCCC(=O)O)C(=O)O)NC(=O)[C@H](C)NC(=O)[C@H](C)NC(=O)[C@H](CCCNC(=N)N)NC(=O)[C@H](CO)NC(=O)[C@H](CC(=O)O)NC(=O)[C@H](CC(C)C)NC(=O)[C@](C)(Cc1ccccc1)NC(=O)[C@H](CCCCN)NC(=O)[C@H](CO)NC(=O)[C@@H](NC(=O)[C@H](CC(=O)O)NC(=O)[C@H](CO)NC(=O)[C@@H](NC(=O)[C@H](Cc1ccccc1)NC(=O)[C@H](CO)NC(=O)CNC(=O)[C@H](Cc1c[nH]cn1)NC(=O)C(C)(C)NC(=O)[C@@H](N)Cc1c[nH]cn1)[C@@H](C)O)C(C)C)C(C)C)C(=O)N[C@@H](C)C(=O)N[C@@H](CC(N)=O)C(=O)N[C@H](C(N)=O)[C@@H](C)O [Peptide 293] (H-H[Aib]HGSFTSDVSK[αMeF]LDSRAAK([AEEA-AEEA-γGlu-C18 diacid])DFVQWIANT-NH2) | 0.0335 nM | 0.092 nM | 0.7
4 | CC[C@H](C)[C@H](NC(=O)[C@H](Cc1c[nH]c2ccccc12)NC(=O)[C@H](CCC(N)=O)NC(=O)[C@@H](NC(=O)[C@](C)(Cc1ccccc1)NC(=O)[C@H](CC(=O)O)NC(=O)[C@H](CCCCNC(=O)COCCOCCNC(=O)COCCOCCNC(=O)CC[C@H](NC(=O)CCCCCCCCCCCCCCCCC(=O)O)C(=O)O)NC(=O)[C@H](C)NC(=O)[C@H](C)NC(=O)[C@H](CCCNC(=N)N)NC(=O)[C@H](CO)NC(=O)[C@H](CC(=O)O)NC(=O)[C@H](CC(C)C)NC(=O)[C@H](Cc1ccc(O)cc1)NC(=O)[C@H](CCCCN)NC(=O)[C@H](CO)NC(=O)[C@@H](NC(=O)[C@H](CC(=O)O)NC(=O)[C@H](CO)NC(=O)[C@@H](NC(=O)[C@H](Cc1ccccc1)NC(=O)[C@H](CO)NC(=O)CNC(=O)[C@H](Cc1c[nH]cn1)NC(=O)C(C)(C)NC(=O)[C@@H](N)Cc1c[nH]cn1)[C@@H](C)O)C(C)C)C(C)C)C(=O)N[C@@H](C)C(=O)N[C@@H](CC(N)=O)C(=O)N[C@H](C(N)=O)[C@@H](C)O [Peptide 294] (H-H[Aib]HGSFTSDVSKYLDSRAAK([AEEA-AEEA-γGlu-C18 diacid])D[αMeF]VQWIANT-NH2) | 0.102 nM | 0.51 nM | 0.4
5 | CC[C@H](C)[C@H](NC(=O)C(C)(C)NC(=O)[C@H](CCC(N)=O)NC(=O)[C@@H](NC(=O)[C@](C)(Cc1ccccc1)NC(=O)[C@H](CC(=O)O)NC(=O)[C@H](CCCCNC(=O)COCCOCCNC(=O)COCCOCCNC(=O)CC[C@H](NC(=O)CC[C@H](NC(=O)CCCCCCCCCCCCCCCCCCC(=O)O)C(=O)O)C(=O)O)NC(=O)[C@H](C)NC(=O)[C@H](C)NC(=O)[C@H](CCCNC(=N)N)NC(=O)[C@H](CO)NC(=O)[C@H](CC(=O)O)NC(=O)[C@H](CC(C)C)NC(=O)C(C)(C)NC(=O)[C@H](CCCCN)NC(=O)[C@H](CO)NC(=O)[C@@H](NC(=O)[C@H](CC(=O)O)NC(=O)[C@H](CO)NC(=O)[C@@H](NC(=O)[C@](C)(Cc1ccccc1)NC(=O)[C@H](CO)NC(=O)CNC(=O)[C@H](Cc1c[nH]cn1)NC(=O)C(C)(C)NC(=O)[C@@H](N)Cc1c[nH]cn1)[C@@H](C)O)C(C)C)C(C)C)C(=O)N[C@@H](C)C(=O)N[C@@H](CC(N)=O)C(=O)N[C@H](C(N)=O)[C@@H](C)O [Peptide 295] (H-H[Aib]HGS[αMeF]TSDVSK[Aib]LDSRAAK([AEEA-AEEA-γGlu-γGlu-C20 diacid])D[αMeF]VQ[Aib]IANT-NH2) | 17.1 nM | 0.312 nM | 108.2
6 | CC[C@H](C)[C@H](NC(=O)C(C)(C)NC(=O)[C@H](CCC(N)=O)NC(=O)[C@@H](NC(=O)[C@](C)(Cc1ccccc1)NC(=O)[C@H](CC(=O)O)NC(=O)[C@H](CCCCNC(=O)COCCOCCNC(=O)COCCOCCNC(=O)CC[C@H](NC(=O)CCCCCCCCCCCCCCCCC(=O)O)C(=O)O)NC(=O)[C@H](C)NC(=O)[C@H](C)NC(=O)[C@H](CCCNC(=N)N)NC(=O)[C@H](CO)NC(=O)[C@H](CC(=O)O)NC(=O)[C@H](CC(C)C)NC(=O)C(C)(C)NC(=O)[C@H](CCCCN)NC(=O)[C@H](CO)NC(=O)[C@@H](NC(=O)[C@H](CC(=O)O)NC(=O)[C@H](CO)NC(=O)[C@@H](NC(=O)[C@](C)(Cc1ccccc1)NC(=O)[C@H](CO)NC(=O)CNC(=O)[C@H](Cc1c[nH]cn1)NC(=O)C(C)(C)NC(=O)[C@@H](N)Cc1c[nH]cn1)[C@@H](C)O)C(C)C)C(C)C)C(=O)N[C@@H](C)C(=O)N[C@@H](CC(N)=O)C(=O)N[C@H](C(N)=O)[C@@H](C)O [Peptide 296] (H-H[Aib]HGS[αMeF]TSDVSK[Aib]LDSRAAK([AEEA-AEEA-γGlu-C18 diacid])D[αMeF]VQ[Aib]IANT-NH2) | 3.25 nM | 0.0641 nM | 100.3
7 | CC[C@H](C)[C@H](NC(=O)C(C)(C)NC(=O)[C@H](CCC(N)=O)NC(=O)[C@@H](NC(=O)[C@](C)(Cc1ccccc1)NC(=O)[C@H](CC(=O)O)NC(=O)[C@H](CCCCNC(=O)COCCOCCNC(=O)COCCOCCNC(=O)CC[C@H](NC(=O)CCCCCCCCCCCCCCCCC(=O)O)C(=O)O)NC(=O)[C@H](C)NC(=O)[C@H](C)NC(=O)[C@H](CCCNC(=N)N)NC(=O)[C@H](CO)NC(=O)[C@H](CC(=O)O)NC(=O)[C@H](CC(C)C)NC(=O)[C@](C)(Cc1ccccc1)NC(=O)[C@H](CCCNC(=N)N)NC(=O)[C@H](CO)NC(=O)[C@@H](NC(=O)[C@H](CC(=O)O)NC(=O)[C@H](CO)NC(=O)[C@@H](NC(=O)[C@](C)(Cc1ccccc1)NC(=O)[C@H](CO)NC(=O)CNC(=O)[C@H](Cc1c[nH]cn1)NC(=O)C(C)(C)NC(=O)[C@@H](N)Cc1c[nH]cn1)[C@@H](C)O)C(C)C)C(C)C)C(=O)N[C@@H](C)C(=O)N[C@@H](CC(N)=O)C(=O)N[C@H](C(N)=O)[C@@H](C)O [Peptide 297] (H-H[Aib]HGS[αMeF]TSDVSR[αMeF]LDSRAAK([AEEA-AEEA-γGlu-C18 diacid])D[αMeF]VQ[Aib]IANT-NH2) | 0.104 nM | 0.0304 nM | 6.8
8 | CC[C@H](C)[C@H](NC(=O)C(C)(C)NC(=O)[C@H](CCC(N)=O)NC(=O)[C@@H](NC(=O)[C@](C)(Cc1ccccc1)NC(=O)[C@H](CC(=O)O)NC(=O)[C@H](CCCCNC(=O)COCCOCCNC(=O)COCCOCCNC(=O)CC[C@H](NC(=O)CC[C@H](NC(=O)CCCCCCCCCCCCCCCCCCC(=O)O)C(=O)O)C(=O)O)NC(=O)[C@H](C)NC(=O)[C@H](C)NC(=O)[C@H](CCCNC(=N)N)NC(=O)[C@H](CO)NC(=O)[C@H](CC(=O)O)NC(=O)[C@H](CC(C)C)NC(=O)[C@](C)(Cc1ccccc1)NC(=O)[C@H](CCCNC(=N)N)NC(=O)[C@H](CO)NC(=O)[C@@H](NC(=O)[C@H](CC(=O)O)NC(=O)[C@H](CO)NC(=O)[C@@H](NC(=O)[C@](C)(Cc1ccccc1)NC(=O)[C@H](CO)NC(=O)CNC(=O)[C@H](Cc1c[nH]cn1)NC(=O)C(C)(C)NC(=O)[C@@H](N)Cc1c[nH]cn1)[C@@H](C)O)C(C)C)C(C)C)C(=O)N[C@@H](C)C(=O)N[C@@H](CC(N)=O)C(=O)N[C@H](C(N)=O)[C@@H](C)O [Peptide 298] (H-H[Aib]HGS[αMeF]TSDVSR[αMeF]LDSRAAK([AEEA-AEEA-γGlu-γGlu-C20 diacid])D[αMeF]VQ[Aib]IANT-NH2) | 0.573 nM | 0.0755 nM | 15.0
